# According to patent publication US7750031B2, “Caffeic acid derivative and composition containing the same” (Thefaceshop Korea Co., Ltd., priority 2007, dated 2010):
# Test: solubility measurement in purified water and ethanol
# Details: for density up to which dissolved: 25° C.
smiles,measurement,setting,value
O=C(O)/C=C/c1ccc(O)c(O)c1 [caffeic acid],solubility,"ethanol (25° C.), density 1 mg/mL",dissolved
same,solubility,"ethanol (25° C.), density 10 mg/mL",dissolved
same,solubility,"ethanol (25° C.), density 100 mg/mL",not dissolved
same,density up to which dissolved,ethanol,≥ 10 mg/mL
same,solubility,"purified water (25° C.), density 1 mg/mL",not dissolved
same,solubility,"purified water (25° C.), density 10 mg/mL",not dissolved
same,solubility,"purified water (25° C.), density 100 mg/mL",not dissolved
same,density up to which dissolved,purified water,not dissolved
